Tested on: Botrytis cinerea
Assay: M1 Activity against the grey mold Botrytis cinerea in the microtiterplate test (Botrci)
Format: cell-based
Settings: 31 ppm, 405 nm, 7 days after inoculation; compound-free control 100%

SMILES: OC(Cn1cncn1)(c1ccc(-c2ccccc2)cc1Cl)C1CC1 (stereo not shown) [Compound I-1]
- growth (relative growth in % of the pathogen): 0%

SMILES: CC(F)(F)C(O)(Cn1cncn1)c1ccc(-c2ccccc2)cc1Cl (stereo not shown) [Compound I-14]
- growth (relative growth in % of the pathogen): 0%

SMILES: C=CCCC(O)(Cn1cncn1)c1ccc(-c2ccccc2)cc1Cl (stereo not shown) [Compound I-9]
- growth (relative growth in % of the pathogen): 0%

SMILES: CCC(O)(Cn1cncn1)c1ccc(-c2ccccc2)cc1Cl (stereo not shown) [Compound I-13]
- growth (relative growth in % of the pathogen): 0%

SMILES: CC(O)(Cn1cncn1)c1ccc(-c2ccccc2)cc1Cl (stereo not shown) [Compound I-8]
- growth (relative growth in % of the pathogen): 0%

SMILES: CC(C)(C)C(O)(Cn1cncn1)c1ccc(-c2ccccc2)cc1Cl (stereo not shown) [Compound I-7]
- growth (relative growth in % of the pathogen): 0%

SMILES: CC#CC(O)(Cn1cncn1)c1ccc(-c2ccccc2)cc1Cl (stereo not shown) [Compound I-10]
- growth (relative growth in % of the pathogen): 0%

From US20170107185A1, “SUBSTITUTED [1,2,4]TRIAZOLE AND IMIDAZOLE COMPOUNDS AS FUNGICIDES” (BASF SE, priority 2014, published 2017)
